The values below come from US10253028B2, “Pyrazolo[3,4-D]pyrimidin derivative and its use for the treatment of leishmaniasis” (GlaxoSmithKline Intellectual Property Development Limited, priority 2015, dated 2019).

In one assay the test system is THP-1 cells. In words: Intramacrophage Leishmania donovani assay, cytotoxicity readout (THP-1 cell count). The assay is classed as cell-based. Particulars: 72 h incubation with compound; for EC50: Homo sapiens, THP-1, 72 h, read-out: pEC50 value against THP-1 cells (converted). Here is the method: (§1) Intra macrophage Leishmania donovani assay
(§2) The intramacrophage Leishmania assay was performed exactly as described in de Rycker et al (Antimicrob Agents Chemother. 2013 July; 57(7):2913-22. doi: 10.1128/AAC.02398-12. Epub 2013 Apr. 9. Comparison of a high-throughput high-content intracellular Leishmania donovani assay with an axenic amastigote assay. De Rycker M, Hallyburton I, Thomas J, Campbell L, Wyllie S, Joshi D, Cameron S, Gilbert I H, Wyatt P G, Frearson J A, Fairlamb A H, Gray D W.). Briefly, 1 μl of compound was pre-dispensed into 384 well sterile intermediary plates. For single point screening, amphotericin B was added to all wells of column 24 as a positive control (final concentration 2 μM) and DMSO to column 23. For potency determinations, ten-point, one in three dilution curves were created with the highest concentration being 50 μM and on each plate a control curve of amphotericin B was included. Controls were as follows: columns 11 and 12: DMSO, columns 23 and 24: amphotericin B (final concentration 2 μM). To the intermediary plates, 100 μl of THP-1 media was added and plates were shaken for >5 min to ensure complete mixing. THP-1 cells (8,000 per well, 50 μl) were plated into black clear-bottom 384 well plates (Corning) in presence of 10 nM PMA. After 20 min at RT, the plates were incubated at 37° C. under 5% CO2 in a humidified incubator for 75 h. The cells were then washed with 450 μl sterile phosphate buffered saline (PBS) supplemented with 1 mM CaCl2, 0.5 mM MgCl2, 0.1% (w/v) bovine serum albumin (PBS-A) and amastigotes were added to all wells at a multiplicity of infection of 5 (40,000 amastigotes per well). After 40 min at RT, plates were returned to the incubator. Amastigotes were incubated in the presence of macrophages for 16 h. […] For each well, i) THP-1 cell count (cytotoxicity readout) and ii) average number of amastigotes per cell (potency readout) were calculated, both in terms of pEC50 values.

For assay [1], the system named is Leishmania donovani amastigotes. Put plainly: Intramacrophage Leishmania donovani assay, potency readout (average number of amastigotes per cell). In kind it is cell-based. The note with it: THP-1, 72 h, amastigotes in PMA-differentiated THP-1 macrophages, 72 h incubation with compound, read-out: pEC50 value against amastigotes (converted). Here is the method: as §1
as §2, with “mixing.” for “mixing. THP-1 cells (8,000 per well, 50 μl) were plated into black clear-bottom 384 well plates (Corning) in presence of 10 nM PMA. After 20 min at RT, the plates were incubated at 37° C. under 5% CO2 in a humidified incubator for 75 h. The cells were then washed with 450 μl sterile phosphate buffered saline (PBS) supplemented with 1 mM CaCl2, 0.5 mM MgCl2, 0.1% (w/v) bovine serum albumin (PBS-A) and amastigotes were added to all wells at a multiplicity of infection of 5 (40,000 amastigotes per well). After 40 min at RT, plates were returned to the incubator. Amastigotes were incubated in the presence of macrophages for 16 h.”

Structures are written as SMILES.

Turning to `C[C@H]1CN(c2n[nH]c3nc(NC4CCC(NS(=O)(=O)CCC(F)(F)F)CC4)ncc23)CCO1` (single isomer, unassigned) [Formula (I)], in the assay with THP-1 cells, the “pEC50 value against THP-1 cells” value was 4.3 and the EC50 was not below 39.8 µM.

Turning to `C[C@@H]1CN(c2n[nH]c3nc(NC4CCC(NS(=O)(=O)CCC(F)(F)F)CC4)ncc23)CCO1` (single isomer, unassigned) [opposite enantiomer], the EC50 was not below 39.8 µM in the assay on THP-1 cells and not above 5.01 µM in assay [1].
